This note sets out measurements from PubChem BioAssay AID588688 (Southern Research Specialized Biocontainment Screening …, 2011).

Structures are written as SMILES. Active and inactive are the calls of the source.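 The calls were made as follows: active = inhibition of 30% or more at any tested concentration; inactive = the rest.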

One test concerns the target M17 leucyl aminopeptidase (Plasmodium falciparum 3D7). In words: Inhibition of P. falciparum M17 aminopeptidase – biochemical, QFRET, dose response (AID 588688). Particulars: recombinant PfM17LAP, H-Leu-NHMec fluorogenic substrate cleavage.
For the compound `O=C(Cc1ccc2ccccc2c1)NO`, the IC50 (as a rule, the concentration that inhibits the measured activity by half) is 0.79 µM.

Take `Cc1ccc(NC(=O)CSc2nc(O)cc(=O)n2Cc2ccccc2)cc1`: the half-maximal inhibitory concentration (IC50) is 33.5 µM.

For `O=C(Cc1cccc2ccccc12)NO`, the concentration for half-maximal inhibition (IC50) was 6.11 µM.

Take `O=C(CSc1nc(O)cc(=O)[nH]1)Nc1ccccc1`: the 50% inhibitory concentration (IC50) is 101 µM.

On to `COc1ccc(OCCC(=O)NO)cc1`, for which the IC50 is 65.6 µM.

`CC1=C(C)CC(C(=O)Nc2nc(-c3cc(C)ccc3C)c(C)s2)C(C(=O)O)C1` (configuration not stated): the half-inhibitory concentration (IC50) is 58.8 µM.

Take `COC(=O)c1c(NC(=O)C2CC=CCC2C(=O)O)sc(C)c1-c1ccc(C)cc1` (configuration not stated): the half-maximal inhibitory concentration (IC50) was 5.13 µM.

As for `COc1ccc(-c2nnc(NC(=O)C3CC(C)=C(C)CC3C(=O)O)s2)cc1` (configuration not stated), the concentration for half-maximal inhibition (IC50) was 96.9 µM.

Take `O=C(CSc1nccc(=O)[nH]1)Nc1ccc(Oc2ccccc2)cc1`: the 50% inhibitory concentration (IC50) is 23.6 µM.

As to `CCn1c2ccccc2c2cc(NC(=O)CSc3nc(C)cc(=O)[nH]3)ccc21`, the half-maximal inhibitory concentration (IC50) was 10.8 µM.

As to `O=C(CSc1nccc(=O)[nH]1)Nc1ccc(N2CCOCC2)cc1`, the IC50 is 17.5 µM.

With `CC1=C(C)CC(C(=O)Nc2ccc(Oc3ccc(Cl)cc3)cc2)C(C(=O)O)C1` (configuration not stated), the IC50 was 46.6 µM.

Consider `COc1cc(NC(=O)CSc2ccccc2)c(C(=O)O)cc1OC`, for which the concentration for half-maximal inhibition (IC50) is 25.6 µM.

With `Cc1cc(SCC(=O)Nc2ccccc2C(=O)O)nc2ccccc12`, the concentration for half-maximal inhibition (IC50) was 17.1 µM.

Still in this test, the particulars now being: recombinant PfM17LAP, H-Leu-NHMec fluorogenic substrate cleavage; at 100 µM (top of the series).
As to `O=C(CSc1ccccc1)Nc1cccc2c1C(=O)NC2=O`, the inhibition result was “inactive”.

As for `COc1cc(NC(=O)c2ccc(-c3ccccc3)cc2)c(C(=O)O)cc1OC`, the inhibition result is “inactive”.

With `O=C(O)c1ccccc1C(=O)Nc1nc2c(s1)CCCC2`, the inhibition result is “inactive”.

For `COC(=O)c1cc(OC)c(OC)cc1NC(=O)c1sc2nc(C)ccc2c1N`, the inhibition entry was “inactive”.

As to `COC(=O)c1ccccc1NC(=O)c1cc2cc3ccc(C)cc3nc2s1`, the inhibition result is “inactive”.

`COC(=O)c1ccccc1NC(=O)c1ccc2c(Cl)c3c(nc2c1)CCC3`: the inhibition entry was “inactive”.

In the case of `NC(N)=NCCC[C@H](N)C(=O)NO`, the inhibition entry was “inactive”.

Regarding `COC(=O)c1c(NC(=O)c2ccccc2C(=O)O)sc2c1CCCC2`, the inhibition entry was “inactive”.

Turning to `CC(C)C[C@H](N)C(=O)NO`, the inhibition entry was “inactive”.

On to `N[C@@H](Cc1c[nH]c2ccccc12)C(=O)NO`, for which the inhibition entry is “inactive”.

As for `CC1CCc2sc(C(=O)Nc3cccc4c3C(=O)NC4)cc2C1` (configuration not stated), the inhibition result is “inactive”.

On to `CCC(C)(C)C1CCc2c(sc(NC(=O)C3CC(C)=C(C)CC3C(=O)O)c2C(=O)OC)C1` (configuration not stated), for which the inhibition entry was “inactive”.

With `O=C(Nc1ccc(Cl)cc1)Nc1ccccc1C(=O)O`, the inhibition result is “inactive”.
